From US11903951B2, “Nasal pharmaceutical compositions with a porous excipient” (M et P Pharma AG, priority 2016, dated 2024)

Assays:
[1] = Solubility of testosterone in different oils; assay type: physicochemical
[2] = Time for complete dissolving of the maximally soluble amount of testosterone in different oils; details: vortex mixer and shaker at 1000 rpm
Protocol: The adsorption ability of the SYLOID® particles was investigated by mixing SYLOID® 244FP, XDP3050, and XDP6035 with castor oil, linalool, TRANSCUTOL®, and CAPRYOL™. The maximally soluble amount of testosterone (under the conditions tested) was dissolved in 2.5 g of each oil using a vortex mixer and shaker at 1000 rpm.

C[C@]12CC[C@H]3[C@@H](CCC4=CC(=O)CC[C@@]43C)[C@@H]1CC[C@@H]2O [testosterone]
Solubility from oil ([1]; CAPRYOL PGMC): 6.0% | Solubility from oil ([1]; TRANSCUTOL HP): 6.5% | Solubility from oil ([1]; linalool): 12.5% | Time of solubility (complete dissolving) ([2]; 0.10 g testosterone in 2.5 g castor oil): >300 min | Time of solubility (complete dissolving) ([2]; 0.15 g testosterone in 2.5 g CAPRYOL): ~60 min | Time of solubility (complete dissolving) ([2]; 0.16 g testosterone in 2.5 g TRANSCUTOL): ~5 min | Time of solubility (complete dissolving) ([2]; 0.31 g testosterone in 2.5 g linalool): 15 to 20 min
